# Calls of active or inactive are those of the source. The rule behind the calls is not given here.
# Biological target: D-amino-acid oxidase (Sus scrofa, UniProt P00371)
# Experiment: Inhibition of pig D-amino acid oxidase
# Sequence of D-amino-acid oxidase (P00371 whole entry): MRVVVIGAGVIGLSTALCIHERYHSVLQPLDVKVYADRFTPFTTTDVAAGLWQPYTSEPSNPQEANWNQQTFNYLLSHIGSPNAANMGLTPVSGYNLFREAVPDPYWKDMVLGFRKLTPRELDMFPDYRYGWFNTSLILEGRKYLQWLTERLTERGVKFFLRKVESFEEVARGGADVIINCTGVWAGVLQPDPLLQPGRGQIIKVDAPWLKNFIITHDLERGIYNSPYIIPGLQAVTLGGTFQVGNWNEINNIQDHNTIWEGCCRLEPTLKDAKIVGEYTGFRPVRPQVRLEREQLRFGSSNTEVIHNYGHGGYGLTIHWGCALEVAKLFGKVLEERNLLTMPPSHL
row,Compound,IC50
1,NCc1cc(=O)[nH]o1 [MUSCIMOL],> 100000 nM
2,Oc1noc2cccc(F)c12,7820 nM
3,COc1noc2cc(Cl)ccc12,> 100000 nM
4,O=c1[nH]oc2cccc(C(F)(F)F)c12,> 100000 nM
5,Oc1noc2cc(F)ccc12,444 nM
6,Oc1noc2ccc(I)cc12,1510 nM
7,COc1ccc2c(O)noc2c1,2570 nM
8,Oc1noc2c(F)cccc12,23000 nM
9,O=c1[nH]oc2ccc([N+](=O)[O-])cc12,2950 nM
10,Cc1ccc2c(O)noc2c1,269 nM
11,Oc1noc2ccccc12,1880 nM
12,CCOc1ccc2c(O)noc2c1,> 100000 nM
13,O=[N+]([O-])c1ccc2c(O)noc2c1,722 nM
14,O=c1[nH]oc2cc(C(F)(F)F)ccc12,5000 nM
15,Cc1c(C[C@H](N)C(=O)O)o[nH]c1=O,> 100000 nM
16,Cc1cccc2c(O)noc12,> 100000 nM
17,Oc1noc2c(F)c(C(F)(F)F)ccc12,> 100000 nM
18,Oc1noc2cc(Cl)ccc12,188 nM
19,Oc1noc2ccc(Br)cc12,599 nM

# Test system: Rattus norvegicus
# Experiment: Increase in D-serine level in Sprague-Dawley rat prefrontal cortex at 30 mg/kg, po coadministered with D-serine
# Type: functional
row,Compound,Activity
1,Oc1noc2cc(Cl)ccc12,>60%

# Test system: Rattus norvegicus
# Experiment: Increase in D-serine level in Sprague-Dawley rat prefrontal cortex at 30 mg/kg, po
# Type: functional, organism-based
# Design: dose 30 mg/kg
row,Compound,Activity
1,Oc1noc2cc(Cl)ccc12,inactive

# Test system: Rattus norvegicus
# Experiment: Increase in D-serine level in Sprague-Dawley rat plasma at 30 mg/kg, po coadministered with D-serine
# Type: functional, organism-based
# Design: dose 30 mg/kg
row,Compound,Activity
1,Oc1noc2cc(Cl)ccc12,Active

# Reference: ChEMBL document CHEMBL1150429, “Synthesis and biological evaluation of D-amino acid oxidase inhibitors” (J Med Chem, 2008)
